Activity calls are given as the source filed them. The calls are words filed in the database; no cut-off is given here.
Experiments:
[1] = Antioxidant activity of the compound assessed as DHR radical scavenging activity at 10 uM by fluorescence assay; assay type: functional
[2] = Antioxidant activity assessed as scavenging of glucose oxidase-generated H2O2 and hydroxyl radicals by chemiluminescence assay; assay type: functional
[3] = target: Butyrylcholinesterase (Equus caballus, UniProt Q9N1N9); assay: Inhibition of equine BuChE after 120 mins by Ellman's method
Butyrylcholinesterase, sequence (Q9N1N9 whole entry): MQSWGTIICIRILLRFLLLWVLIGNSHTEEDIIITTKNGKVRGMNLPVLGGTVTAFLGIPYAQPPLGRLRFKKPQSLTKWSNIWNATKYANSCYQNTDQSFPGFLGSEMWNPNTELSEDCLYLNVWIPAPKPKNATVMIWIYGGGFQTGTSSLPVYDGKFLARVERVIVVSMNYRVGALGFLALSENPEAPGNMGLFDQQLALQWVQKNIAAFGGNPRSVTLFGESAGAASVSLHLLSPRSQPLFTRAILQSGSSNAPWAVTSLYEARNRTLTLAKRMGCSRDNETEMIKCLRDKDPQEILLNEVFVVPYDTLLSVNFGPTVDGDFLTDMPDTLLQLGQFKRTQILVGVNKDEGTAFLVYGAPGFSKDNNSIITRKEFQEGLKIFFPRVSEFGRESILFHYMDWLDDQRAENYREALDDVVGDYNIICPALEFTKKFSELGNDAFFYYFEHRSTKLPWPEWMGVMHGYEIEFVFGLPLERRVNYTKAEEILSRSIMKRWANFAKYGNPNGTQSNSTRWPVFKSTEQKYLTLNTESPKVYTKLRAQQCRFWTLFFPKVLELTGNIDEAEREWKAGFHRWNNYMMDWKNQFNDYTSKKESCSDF

[4] = Antioxidant activity assessed as scavenging of morpholino sydononimine based nitric oxide release by chemiluminescence assay; assay type: functional
[5] = tested on: Radical scavenging activity; assay: Antioxidant activity of the compound assessed as DPPH radical scavenging at 10 uM after 30 secs by spectrophotometry; assay type: functional
[6] = Cytotoxicity against rat H9c2 cells assessed as cell viability in absence of H2O2; assay type: cell-based; set-up: concentration or dose not given beside the values; conditions: read-out: Activity
[7] = target: T1, Acetylcholinesterase (Bos taurus, UniProt P23795); assay: Inhibition of bovine AChE after 120 mins by Ellman's method
T1 sequence (P23795 whole entry): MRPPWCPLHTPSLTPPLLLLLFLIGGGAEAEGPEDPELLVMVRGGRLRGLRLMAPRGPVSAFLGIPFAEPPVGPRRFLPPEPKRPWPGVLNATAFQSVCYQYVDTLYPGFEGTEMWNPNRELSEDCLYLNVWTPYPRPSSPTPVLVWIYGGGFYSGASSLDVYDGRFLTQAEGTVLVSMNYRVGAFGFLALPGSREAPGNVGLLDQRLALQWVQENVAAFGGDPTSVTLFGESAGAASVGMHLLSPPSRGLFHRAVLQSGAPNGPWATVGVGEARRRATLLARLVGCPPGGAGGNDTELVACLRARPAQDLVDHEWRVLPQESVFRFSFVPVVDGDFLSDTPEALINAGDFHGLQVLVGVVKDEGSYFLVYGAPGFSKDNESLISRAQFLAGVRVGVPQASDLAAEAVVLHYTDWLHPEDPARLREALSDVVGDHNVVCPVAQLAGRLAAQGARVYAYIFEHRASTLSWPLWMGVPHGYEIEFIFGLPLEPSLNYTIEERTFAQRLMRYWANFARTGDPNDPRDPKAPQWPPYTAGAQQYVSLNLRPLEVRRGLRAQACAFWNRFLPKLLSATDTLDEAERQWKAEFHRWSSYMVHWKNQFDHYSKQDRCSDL

[8] = tested on: H9c2; assay: Prevention of apoptosis in rat H9c2 cells assessed as protection against oxidative stress-induced cytotoxicity at 100 nM […] by Alamar blue assay; assay type: functional
[9] = Selectivity ratio of IC50 for equine BuChE to IC50 for bovine AChE
[10] = tested on: H9c2; assay: Prevention of apoptosis in rat H9c2 cells assessed as reduction in fall of mitochondrial membrane potential at 100 nM after 1 hr; assay type: functional; set-up: scale not given: the % may be the effect or the level left
[11] = Antioxidant activity of the compound assessed as scavenging of hydroxyl radical by chemiluminometric method; assay type: functional
[12] = Antioxidant activity of the compound assessed as scavenging of peroxynitrite by chemiluminometric method; assay type: functional
[13] = tested on: Liver microsomes; assay: Metabolic stability in human liver microsomes; assay type: ADME, Microsome
[14] = Chemical stability in MeCN/water solution used as 100 mg/mL solution at room temperature; assay type: physicochemical; conditions: buffer
[15] = Chemical stability in MeCN/water solution used as 0.5 mg/mL solution at -20 degC; assay type: physicochemical; conditions: buffer
[16] = Chemical stability in MeCN/water solution used as 50 mg/mL solution at -20 degC; assay type: physicochemical; conditions: buffer
[17] = tested on: Liver; assay: Metabolic stability in mouse liver microsomes; assay type: ADME, Microsome
[18] = organism: Gallus gallus; assay: Prevention of apoptosis in chick primary telencephalon neurons assessed as protection against serum deprivation-induced cytotoxicity at 1 to 10 uM by MTT assay; assay type: functional
[19] = organism: Gallus gallus; assay: Prevention of apoptosis in chick primary telencephalon neurons assessed as protection against serum deprivation-induced oxidative stress at 10 nM measured on day 8 by MTT assay; assay type: functional

SMILES | IC50 [2] [µM] | IC50 [3] [µM] | IC50 [7] [µM] | Activity [8] | Ratio IC50 [9] | other results
COC(=O)CCC1CN(C)c2cccc(O)c21 (stereo not given) | 0.45 | – | – | – | – | Activity [1]: 15.4%
CCN(C)C(=O)Oc1cccc2c1CCN2CCC(=O)OC | 0.3 | 0.7 | – | – | – | IC50 [4]: 8.49 µM; Activity [5]: 27.8%
COC(=O)CCC1CN(C)c2cc(OC(=O)N(C)c3ccc(OC)cc3)ccc21.Cl (stereo not given) | 2.24 | 372 | 17.4 | 33.3% | – | viability [6]: 106%
CCN(C)C(=O)Oc1ccc2c(c1)NCC2CCC(=O)OC (stereo not given) | – | – | – | – | 0.07 | Activity [5]: 31.7%
CCCCN(C)C(=O)Oc1ccc2c(CCC(=O)OC)c[nH]c2c1 | – | – | – | 28.8% | – | Activity [10]: 56%
CCN(C)C(=O)Oc1ccc2c(c1)N(CCC(=O)OC)CC2 | 0.22 | 6.8 | – | – | – | IC50 [4]: 2.18 µM
COC(=O)CCc1c[nH]c2cc(OC(=O)N(C)c3ccc(OC)cc3)ccc12 | – | – | > 600 | 43.1% | – | Activity [10]: 48.2%
O=C(O)c1cc(O)c(O)c(O)c1 | – | – | – | – | – | Activity [5]: 31.4%
CCN(C)C(=O)Oc1cccc([C@H](C)N(C)C)c1 [RIVASTIGMINE] | – | – | 0.62 | – | – | –
CCN(C)C(=O)Oc1ccc2c(c1)N(C)CC2 | 1.15 | 58.7 | 418 | – | 0.14 | –
COc1ccc2[nH]cc(CCNC(C)=O)c2c1 [MELATONIN] | 95.8 | – | – | – | – | IC50 [11]: 537 µM; IC50 [12]: 127 µM; IC50 [4]: 1020 µM
COC(=O)CCC1CN(C)c2cccc(OC(=O)N(C)c3ccc(OC)cc3)c21 (stereo not given) | 15.3 | > 600 | 246 | inactive | > 2.4 | viability [6]: 107%
CCN(C)C(=O)Oc1ccc2c(c1)NCC2CCC(=O)OC.O=C(O)CC(O)(CC(=O)O)C(=O)O (stereo not given) | – | – | – | – | – | Stability [13]: Unstable; Stability [14]: Unstable; Stability [15]: Stable; Stability [16]: Stable; Stability [17]: Unstable
CCN(C)C(=O)Oc1cccc2c1C(CCC(N)=O)CN2.Cl (stereo not given) | 2.39 | 8.5 | 62 | 55.2% | 0.14 | viability [6]: 96%
O=c1c(O)c(-c2ccc(O)c(O)c2)oc2cc(O)cc(O)c12 [QUERCETIN] | 0.06 | – | – | 45.1% | – | Activity [1]: 33.6%; IC50 [4]: 0.61 µM; Activity [5]: 19.2%
COC(=O)CCC1CNc2cc(OC(=O)N(C)c3ccc(OC)cc3)ccc21.Cl (stereo not given) | 3.41 | 54 | – | 43.8% | 1.4 | –
CN(C)C(=O)Oc1cccc2c1CCN2.Cl | 0.77 | 1.3 | 1.2 | 46.8% | 1.08 | –
CN1CC(CCC(=O)O)c2ccc(O)cc21 (stereo not given) | 0.84 | – | – | – | – | Activity [1]: 66.3%; IC50 [4]: 3.25 µM
CCCCN(C)C(=O)Oc1cccc2c1C(CCC(=O)OC)CN2C.Cl (stereo not given) | 6.84 | 197 | – | 31.5% | 2.89 | viability [6]: 93.9%
CCN(C)C(=O)Oc1cccc2c1C(CCC(=O)O)CN2 (stereo not given) | 1.59 | 0.3 | 19 | inactive | 0.016 | viability [6]: 93.4%
CCN(C)C(=O)Oc1cccc2c1C(CCC(=O)OC)CN2.Cl (stereo not given) | 1.46 | 0.3 | 7.4 | 73% | – | viability [6]: 99.9%; IC50 [4]: 4.55 µM
CCCCN(C)C(=O)Oc1ccc2c(c1)N(C)CC2CCC(=O)OC (stereo not given) | 6.27 | 66.8 | 122 | – | 0.55 | –
Cl.Oc1cccc2c1CCN2 | 1.15 | – | – | 38% | – | Activity [18]: Active; Activity [19]: Active

Reference: ChEMBL document CHEMBL2177019, “Carbamate derivatives of indolines as cholinesterase inhibitors and antioxidants for the treatment of Alzheimer's disease” (J Med Chem, 2012)
